Where a name gives a salt, the structure may show the parent alone. Read-outs that look alike come from different tables or passages of the source.
What was measured:
1205 Lu melanoma tumors = assay: Tumorigenicity assessment, 1205 Lu xenograft, i.p. treatment; type: in vivo, nude mice; settings: day 24; i.p. 0.315 μmoles (2.5 ppm selenium) Monday, Wednesday, Friday for 3 weeks
Description: Tumor kinetics are measured by subcutaneous injection of 5×10^6 UACC 903 or 2.5×10^61205 Lu cells in 0.2 ml of DMEM containing 10% FBS above left and right rib cages of 4-6 week old female nude mice (Harlan Sprague Dawley, Indianapolis, Ind.). Six days later, a fully vascularized tumor has developed and mice are randomly placed in control DMSO or experimental (PBIT or PBISe) groups (n=5 animals; 10 tumors total) followed by i.p. treatment with PBIT ([…]) or PBISe ([…]; equivalent to 2.5 ppm selenium per 20 g mouse) on Monday, Wednesday and Friday for 3 weeks. Dimensions of developing tumors and body weight are measured.

WM115 melanoma cell line = assay: MTS cell viability assay, WM115; settings: for IC50: Homo sapiens, WM-115, 24 h
Description: 5×10^3 cells per well in 100 μl DMEM-10% FBS are grown in a 96-well plate for 36 or 72 hours, respectively for melanoma (UACC 903, 1205 Lu and WM115) and human fibroblast (FF2441) cell lines and treated with either PBS vehicle or increasing concentrations (3.5-21 μM) of PBIT, PBISe, PEIT or PEISe for 24 hours. Cellular viability compared to control treated cells is measured using the MTS assay (Promega, Madison, Wis.). IC50 (μM) values for each compound in respective cell lines is determined from three independent experiments using GraphPad Prism version 4.01 (GraphPad, San Diego, Calif.), bars, SEM.
Growth inhibitory effects on cultured cells from human vertical growth phase (VGP) melanoma cell line WM115, Lung adenocarcinoma (A549), fibrosarcoma (HT-1080), prostate adenocarcinoma (PC-3), ovarian carcinoma (OVCAR-3), and breast adenocarcinoma (MDA-MB-231) are plated in 96 well plates at a density of 5×10^3 cells/well in 100 μl media. The cells are treated 36 hours later with PBISe (0.19-100 μM), PBIT (10-100 μM), PEIT 10-100 μM), or PEISe (10-100 μM) for 24 h and cell viability measured using MTS assay. Dose response curves for each compound are generated and the IC50 values (μM) determined using GraphPad Prism software. Each experiment is replicated at least 3 times and the average IC50 (μM) values with standard error represented.

[1] = system: Caco-2 colon adenocarcinoma cells; assay: MTS cell viability assay, Caco-2
Description: In vitro inhibitory efficacy is measured using 3-(4,5-dimethylthiazol-2-yl)-5-(3-carboxymethoxyphenyl)-2-(4-sulfophenyl)-2H-tetrazolium (MTS) assay (Promega, Madison, Wis.). […] Cells are treated with either vehicle control, PBS, PBIT (40-120 μM) or PBISe (2.4-10 μM) for 72 h. The percentages of viable cells compared to control PBS treated cells are determined using MTS assay and IC50 values calculated using GraphPad Prism version 4.01 (GraphPad software, San Diego, Calif.). An IC50 value for each compound is determined by at least three independent experiments and represented with a standard error.
(§1) The IC50 value is evaluated by treating with increasing concentrations of PBIT, PEIT, PEISe (10-100 μM) or PBISe (1.6-50 μM) for 24-72 hours and the number of viable cell are quantified using MTS (Promega, Wis.).

UACC 903 melanoma tumors = assay: Topical application on melanoma tumor growth in vivo; settings: topical daily 0.0945 umoles (1.5 ppm selenium, 5.12 mg/kg); day 17 through day 29
Description: UACC 903 melanoma cells (0.25×10^5/site) are subcutaneously injected into left and right flanks of 4-6 weeks old female nude mice (n=4) and 24 h later PBIT, PBISe (0.0945 umoles, 1.5 ppm selenium equivalent to 5.12 mg/kg body weight) or vehicle control (acetone) is applied topically for 29 days. Sizes of developing tumors are measured and average sizes±S.E.M. (in mm^3) plotted. A minimum of 5 mice per group is used for the topical treatment.

[2] = system: A549 lung adenocarcinoma cells; assay: MTS cell viability assay, A549; type: cell-based, human
Description: (§2) Growth inhibitory effects on cultured cells from human vertical growth phase (VGP) melanoma cell line WM115, Lung adenocarcinoma (A549), fibrosarcoma (HT-1080), prostate adenocarcinoma (PC-3), ovarian carcinoma (OVCAR-3), and breast adenocarcinoma (MDA-MB-231) are plated in 96 well plates at a density of 5×10^3 cells/well in 100 μl media. […] Dose response curves for each compound are generated and the IC50 values (μM) determined using GraphPad Prism software. Each experiment is replicated at least 3 times and the average IC50 (μM) values with standard error represented.

[3] = system: colon adenocarcinoma cells (Caco-2, HT 29, HCT 116, SW 480); assay: MTS viability, four colon cancer cell lines (summary); type: cell-based
Description: as §1

[4] = system: PI3 kinase signaling in Caco-2 cells; assay: Western blot analysis of Caco-2 cell lysates; type: cell-based
Description: For additional Western blot analysis, Caco-2 cell lysates are harvested by addition of lyses buffer containing 50 mM HEPES (pH 7.5), 150 mM NaCl, 10 mM EDTA, 10% glycerol, 1% Triton X-100, 1 mM sodium orthovanadate, 0.1 mM sodium molybdate, 1 mM phenylmethylsulfonyl fluoride, 20 μg/ml aprotinin, and 5 μg/ml leupeptin. Whole cell lysates are centrifuged (≦10,000×g) for 10 minutes at 4° C. to remove cell debris. Protein concentrations are quantitated using the BCA assay (Pierce; Rockford, Ill.), and 30 μg of lysate loaded per lane onto NuPAGE Gels (Life Technologies, Inc. Carlsbad, Calif.). Following electrophoresis, samples are transferred to polyvinylidene difluoride (PVDF) membrane (Pall Corporation, Pensacola, Fla.) and the blots probed with antibodies according to each supplier's recommendations: antibodies to PRAS40 and phosphorylated PRAS40 from Invitrogen (Invitrogen Corporation, Carlsbad, Calif.); antibodies to cyclin D1, p27, p21, and Erk2 from Santa Cruz Biotechnology (Santa Cruz, Calif.); and antibodies to Akt2, phosphorylated-Akt (Ser473), phosphorylated-Erk 1/2 and cleaved PARP from Cell Signaling Technology (Danvers, Mass.). Secondary antibodies conjugated with horseradish peroxidase are obtained from Santa Cruz Biotechnology (Santa Cruz, Calif.). Immunoblots are developed using the enhanced chemiluminescence (ECL) detection system (Pierce Biotechnology, Rockford, Ill.) (FIGS. 6A and 6B).

[5] = system: WM35-GFP and UACC 903-GFP melanoma tumors in reconstructed skin; assay: Topical treatment of skin reconstructs containing melanoma cells; type: cell-based, human; settings: 8 days
Description: Generation of skin containing melanocytic lesions is briefly described. […] Mixture is then aliquoted into 6 or 12 well plates and incubated at 37° C. for 3 hours. […] One milliliter of cell suspension is added to each well on top of the dermal layer. Following two days growth, reconstructed skin is transferred onto wire grids and fed via diffusion from E-media below the platforms.
Skin reconstructs containing melanoma cells are treated topically with increasing concentrations (5, 10, 15 and 20 μM in 200 μL PBS) of PBIT or PBISe. Eight days later control vehicle PBS treated, PBIT and PBISe exposed skins are fixed in paraformaldehyde and stored in 0.5% EDTA.
Beginning on day 8 of culture, the reconstructed skins containing melanoma tumors are treated with increasing concentrations of PBISe (5, 10, 15 and 20 μM) or PBIT (15 and 20 μM) in 200 μL of vehicle PBS for 8 days and the size of developing tumors, in terms of area occupied by GFP, is measured using fluorescence microscopy.

[6] = system: A549, Caco-2, HT-1080, PC-3, OVCAR-3, MDA-MB-231, WM115; assay: MTS viability, all cancer cell lines tested (summary); type: cell-based, human
Description: as §2

[7] = system: HT-1080 fibrosarcoma cells; assay: MTS cell viability assay, HT-1080; type: cell-based, human
Description: as §2

UACC 903 tumors = assay: Apoptosis and proliferation rates in size and time matched tumors; type: in vivo, nude mice; settings: day 15, i.p. on alternate days
Description: For mechanistic studies, 5×10^6 UACC 903 cells are injected subcutaneously into nude mice generating tumors of the same size developing at parallel time points. 6-days later mice are treated i.p. with DMSO vehicle, PBIT or PBISe (0.315 moles each) on alternate days up to day 15. Size and time matched tumors are harvested at days 9, 11, 13, and 15 to assess changes in cell proliferation and apoptosis. […] Protein concentration is quantitated using Bio-Rad protein assay reagent (Bio-Rad laboratories, Hercules, Calif.) and analyzed by Western blotting.
For caspase-3/7 activity determination, 100 μg of protein lysate is incubated with a Rhodamine-110 conjugated caspase-3/7 substrate (Z-DEVD) for 1-2 hours and fluorescence (485 nm excitation and 520 nm emission) measured in a SPECTRAmax M2 plate reader. […] A minimum of 6 different tumors with 4-6 fields per tumor is analyzed and results represented as the average±SEM. […]

UACC 903 melanoma cells = assay: Cell cycle analysis (propidium iodide, FACScan); type: cell-based; settings: 3.5 to 21 μM; 24 hours
Description: Cell cycle analysis is undertaken by growing 1.5×10^6 melanoma cells in 100-mm culture dishes followed by treatment with PBIT or PBISe (3.5 to 21 μM) for 24 hours. Cells are collected and stained using propidium iodide (100 μg/mL; Sigma, St Louis, Mo.), 20 μg/mL Ribonuclease A (Roche, Indianapolis, Ind.) 3 μg/mL Triton X-100 dissolved in 0.1% (W/V) sodium citrate for 30 minutes at 4° C. (Krishan, A., J Cell Biol 1975; 66:188-93). Stained cells are analyzed using the FACScan analyzer (Becton Dickinson, San Jose, Calif.) and data processed using ModFit LT software (Verity Software House, Topsham, Me.).

N=C(N)[Se]CCc1ccc(CC[Se]C(=N)N)cc1 [PBISe, s,s′-1,4-phenylene-bis(1,2-ethanediyl)bis-isoselenourea dihydrobromide]
difference in tumor volume compared to control DMSO or PBIT, 1205 Lu (1205 Lu melanoma tumors): ~50%
IC50 (WM115 melanoma cell line; read-out: IC50, WM115 (Table I)): 9.7 ± 1.4 µM
IC50 (WM115 melanoma cell line; read-out: Inhibition Cancer Cells IC50, WM115 (Table III)): 9.7 ± 1.4 µM
Fold increase in efficacy (PBIT/PBISe), WM115 (WM115 melanoma cell line; ratio of IC50 PBIT/PBISe, WM115): >10 fold
increase in potency compared to PBIT ([1]; Caco-2, 72 h, MTS): 25 fold
cells killed ([1]; Caco-2, PBISe at 2-4 μM): > 80%
Fold increase in efficacy (PBIT/PBISe), Caco-2 ([1]; ratio of IC50 PBIT/PBISe, Caco-2): ~24.7 fold
IC50 ([1]; read-out: IC50, Caco-2 colon adenocarcinoma cells, Caco-2, 72 h, MTS): 2.4 µM
IC50 ([1]; read-out: Inhibition Cancer Cells IC50, Caco-2 (Table III), Caco-2 colorectal adenocarcinoma, MTS): 2.4 ± 0.43 µM
IC50 ([1]; read-out: Inhibition of growth IC50, Caco-2 (Table II), Caco-2, 24-72 hours, MTS): 2.4 ± 0.43 µM
decrease in tumor volume versus vehicle acetone or PBIT treated mice (UACC 903 melanoma tumors): 50%
IC50 ([2]; Homo sapiens, A549, 24 h, read-out: Inhibition Cancer Cells IC50, A549 (Table III)): 4.2 ± 0.58 µM
Fold increase in efficacy (PBIT/PBISe), A549 ([2]; ratio of IC50 PBIT/PBISe, A549): >23.8 fold
fold more sensitive, colon adenocarcinoma cells than normal cells ([3]; colon lines vs FF2441): 2-7 fold
IC50 ([3]; read-out: IC50 range, four colon cancer cell lines): 2.4 to 5.55 µM
cleaved PARP [4]: increase
downstream pPRAS40 level [4]: decreased
pAkt and Akt2 levels [4]: decreased
morphology of constituent cells of skin reconstructs ([5]; 20 uM topical, H&E): no toxicity
difference in tumor size compared to vehicle PBS control and PBIT treated skins ([5]; 15 and 20 μM, topical, area occupied by GFP, WM35 and UACC 903): 80-90%
fold more potent at decreasing cell viability compared to PBIT, all cancer cell lines tested ([6]; A549, Caco-2, HT-1080, PC-3, OVCAR-3, MDA-MB-231, WM115): > 10 fold
IC50 ([6]; Homo sapiens, read-out: concentration decreasing cell viability by 50% (IC50), cancer cell lines of Table III): 8 to 10 µM
IC50 ([7]; Homo sapiens, HT-1080, 24 h, read-out: Inhibition Cancer Cells IC50, HT-1080 (Table III)): 3.2 ± 0.61 µM
Fold increase in efficacy (PBIT/PBISe), HT-1080 ([7]; ratio of IC50 PBIT/PBISe, HT-1080): >31.2 fold
caspase-3/7 activity in tumors versus PBIT or DMSO vehicle (UACC 903 tumors): 2 fold
increase in G2/M cells (UACC 903 melanoma cells): ~3 fold
sub G0/G1 population (UACC 903 melanoma cells): increased
